{"source": "patent US20120014912A1", "about": "“PALATABLE PHARMACEUTICAL COMPOSITION” (VERTEX PHARMACEUTICALS INCORPORATED, priority 2010, published 2012)", "tested_on": "HCV", "test": "Clinical trials, antiviral activity", "type": "in vivo, Hepatitis C virus"}
{"smiles": "CCC[C@H](NC(=O)[C@@H]1[C@H]2CCC[C@H]2CN1C(=O)[C@@H](NC(=O)[C@@H](NC(=O)c1cnccn1)C1CCCCC1)C(C)(C)C)C(=O)C(=O)NC1CC1", "note": "[VX-950]", "values": [{"measurement": "antiviral activity", "value": "has shown antiviral activity"}]}
